Key:
Set-up in all cases: scale not given: the % may be the effect or the level left
[1] = molecular target: LIM domain kinase 1 (Homo sapiens) (UniProt P53667); experiment: Inhibition of LIMK1 assessed as enzyme activity at 1 uM relative to untreated control
[2] = molecular target: Casein kinase II subunit alpha (Homo sapiens) (UniProt P68400); experiment: Inhibition of CSNK2A1 assessed as enzyme activity at 1 uM relative to untreated control
[3] = molecular target: Myosin-IIIa (Homo sapiens) (UniProt Q8NEV4); experiment: Inhibition of MYO3A assessed as enzyme activity at 1 uM relative to untreated control
[4] = molecular target: Cyclin-dependent kinase 17 (Homo sapiens) (UniProt Q00537); experiment: Inhibition of PCTK2 assessed as enzyme activity at 1 uM relative to untreated control
[5] = molecular target: Mitogen-activated protein kinase 8 (Homo sapiens) (UniProt P45983); experiment: Inhibition of JNK1 assessed as enzyme activity at 1 uM relative to untreated control
[6] = molecular target: Insulin-like growth factor 1 receptor (Homo sapiens) (UniProt P08069); experiment: Inhibition of IGF1R assessed as enzyme activity at 1 uM relative to untreated control
[7] = molecular target: Serine/threonine-protein kinase 16 (Homo sapiens) (UniProt O75716); experiment: Inhibition of STK16 assessed as enzyme activity at 1 uM relative to untreated control
[8] = molecular target: Discoidin domain-containing receptor 2 (Homo sapiens) (UniProt Q16832); experiment: Inhibition of DDR2 assessed as enzyme activity at 1 uM relative to untreated control
[9] = system: Epidermal growth factor receptor (Homo sapiens), P00533 [UNDEFINED MUTATION]; experiment: Inhibition of EGFR L747-S752del, P753S mutant assessed as enzyme activity at 1 uM relative to untreated control; format: protein assay
[10] = molecular target: TRAF2 and NCK-interacting protein kinase (Homo sapiens) (UniProt Q9UKE5); experiment: Inhibition of TNIK assessed as enzyme activity at 1 uM relative to untreated control
[11] = molecular target: NUAK family SNF1-like kinase 2 (Homo sapiens) (UniProt Q9H093); experiment: Inhibition of SNARK assessed as enzyme activity at 1 uM relative to untreated control
Chain of NUAK family SNF1-like kinase 2 (Homo sapiens) (Q9H093 whole entry): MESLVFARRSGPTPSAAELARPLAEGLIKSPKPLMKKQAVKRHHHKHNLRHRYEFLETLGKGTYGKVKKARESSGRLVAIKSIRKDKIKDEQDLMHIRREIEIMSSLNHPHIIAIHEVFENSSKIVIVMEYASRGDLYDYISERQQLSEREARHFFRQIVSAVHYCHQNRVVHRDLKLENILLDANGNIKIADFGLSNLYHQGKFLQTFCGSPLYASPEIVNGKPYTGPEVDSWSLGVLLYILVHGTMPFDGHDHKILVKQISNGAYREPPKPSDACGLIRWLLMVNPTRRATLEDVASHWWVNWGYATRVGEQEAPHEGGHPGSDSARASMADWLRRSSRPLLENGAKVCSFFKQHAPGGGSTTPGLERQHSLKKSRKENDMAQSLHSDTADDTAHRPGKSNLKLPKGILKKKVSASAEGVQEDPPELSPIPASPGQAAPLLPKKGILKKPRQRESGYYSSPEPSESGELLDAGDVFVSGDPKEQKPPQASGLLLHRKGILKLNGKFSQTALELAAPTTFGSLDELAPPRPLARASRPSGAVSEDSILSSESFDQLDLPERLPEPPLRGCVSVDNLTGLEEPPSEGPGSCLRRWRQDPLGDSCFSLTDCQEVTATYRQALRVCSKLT

Chain of Serine/threonine-protein kinase 16 (Homo sapiens) (O75716 whole entry, the tested form may be a part): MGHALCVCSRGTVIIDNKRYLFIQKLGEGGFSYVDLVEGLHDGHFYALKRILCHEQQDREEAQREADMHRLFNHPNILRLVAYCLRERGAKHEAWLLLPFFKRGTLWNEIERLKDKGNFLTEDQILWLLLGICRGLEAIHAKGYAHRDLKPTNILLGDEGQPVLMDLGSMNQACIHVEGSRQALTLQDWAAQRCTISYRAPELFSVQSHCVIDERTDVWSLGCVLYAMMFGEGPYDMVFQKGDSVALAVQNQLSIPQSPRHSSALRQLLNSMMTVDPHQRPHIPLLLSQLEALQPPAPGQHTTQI
Chain of Cyclin-dependent kinase 17 (Homo sapiens) (Q00537 whole entry, looked up): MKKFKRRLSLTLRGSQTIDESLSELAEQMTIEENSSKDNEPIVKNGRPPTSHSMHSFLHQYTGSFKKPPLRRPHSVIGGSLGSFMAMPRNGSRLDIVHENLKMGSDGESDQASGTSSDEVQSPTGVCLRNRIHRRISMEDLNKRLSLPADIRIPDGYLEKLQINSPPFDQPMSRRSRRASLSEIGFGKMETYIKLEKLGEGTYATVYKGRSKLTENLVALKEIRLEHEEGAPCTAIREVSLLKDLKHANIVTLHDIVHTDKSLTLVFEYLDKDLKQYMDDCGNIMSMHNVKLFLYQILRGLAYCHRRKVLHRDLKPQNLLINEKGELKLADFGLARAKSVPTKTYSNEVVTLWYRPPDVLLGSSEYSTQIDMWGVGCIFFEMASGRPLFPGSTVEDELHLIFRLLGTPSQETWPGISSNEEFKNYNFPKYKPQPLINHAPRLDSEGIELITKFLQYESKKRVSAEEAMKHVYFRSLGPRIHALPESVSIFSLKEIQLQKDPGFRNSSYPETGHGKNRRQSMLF
Chain of Myosin-IIIa (Homo sapiens) (Q8NEV4 whole entry): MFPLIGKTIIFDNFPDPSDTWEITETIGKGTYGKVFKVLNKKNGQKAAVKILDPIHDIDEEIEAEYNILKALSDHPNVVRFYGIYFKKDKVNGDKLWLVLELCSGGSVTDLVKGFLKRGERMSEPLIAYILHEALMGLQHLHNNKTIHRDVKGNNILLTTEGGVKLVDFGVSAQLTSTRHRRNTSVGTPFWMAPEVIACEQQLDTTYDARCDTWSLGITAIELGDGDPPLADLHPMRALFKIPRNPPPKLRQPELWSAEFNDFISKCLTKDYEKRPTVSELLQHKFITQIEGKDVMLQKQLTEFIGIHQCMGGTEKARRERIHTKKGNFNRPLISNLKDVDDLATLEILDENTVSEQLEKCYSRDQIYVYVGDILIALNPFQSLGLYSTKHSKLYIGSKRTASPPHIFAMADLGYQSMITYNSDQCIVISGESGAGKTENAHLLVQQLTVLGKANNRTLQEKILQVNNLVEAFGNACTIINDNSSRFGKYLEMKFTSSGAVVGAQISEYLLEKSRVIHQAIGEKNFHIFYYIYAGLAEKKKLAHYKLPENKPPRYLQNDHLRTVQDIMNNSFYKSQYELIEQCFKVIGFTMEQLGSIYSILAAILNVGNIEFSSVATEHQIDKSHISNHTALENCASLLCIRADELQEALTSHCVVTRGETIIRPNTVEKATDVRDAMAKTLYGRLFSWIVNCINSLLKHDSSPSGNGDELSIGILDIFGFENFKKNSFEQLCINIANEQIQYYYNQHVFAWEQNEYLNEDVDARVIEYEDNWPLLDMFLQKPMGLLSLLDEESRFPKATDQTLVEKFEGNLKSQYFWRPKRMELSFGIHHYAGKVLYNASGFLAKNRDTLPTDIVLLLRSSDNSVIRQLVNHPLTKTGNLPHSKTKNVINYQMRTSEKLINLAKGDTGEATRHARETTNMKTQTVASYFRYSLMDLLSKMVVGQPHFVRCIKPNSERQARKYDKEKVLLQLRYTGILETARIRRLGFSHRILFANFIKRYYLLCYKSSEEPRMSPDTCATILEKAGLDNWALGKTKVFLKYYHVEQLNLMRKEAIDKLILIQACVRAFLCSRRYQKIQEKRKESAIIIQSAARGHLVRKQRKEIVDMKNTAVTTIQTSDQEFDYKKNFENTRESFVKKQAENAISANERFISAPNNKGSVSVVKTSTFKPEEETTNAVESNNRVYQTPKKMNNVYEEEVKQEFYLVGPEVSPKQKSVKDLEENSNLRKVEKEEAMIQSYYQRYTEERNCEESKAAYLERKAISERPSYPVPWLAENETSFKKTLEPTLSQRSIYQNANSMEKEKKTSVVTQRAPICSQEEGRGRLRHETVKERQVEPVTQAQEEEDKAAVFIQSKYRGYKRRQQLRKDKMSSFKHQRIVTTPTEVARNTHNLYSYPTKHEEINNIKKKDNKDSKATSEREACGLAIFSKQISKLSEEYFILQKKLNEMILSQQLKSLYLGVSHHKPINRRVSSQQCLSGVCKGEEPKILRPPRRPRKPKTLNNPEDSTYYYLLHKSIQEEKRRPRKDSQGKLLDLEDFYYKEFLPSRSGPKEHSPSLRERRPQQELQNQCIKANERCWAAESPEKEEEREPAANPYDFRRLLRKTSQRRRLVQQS
Chain of Casein kinase II subunit alpha (Homo sapiens) (P68400 whole entry, looked up): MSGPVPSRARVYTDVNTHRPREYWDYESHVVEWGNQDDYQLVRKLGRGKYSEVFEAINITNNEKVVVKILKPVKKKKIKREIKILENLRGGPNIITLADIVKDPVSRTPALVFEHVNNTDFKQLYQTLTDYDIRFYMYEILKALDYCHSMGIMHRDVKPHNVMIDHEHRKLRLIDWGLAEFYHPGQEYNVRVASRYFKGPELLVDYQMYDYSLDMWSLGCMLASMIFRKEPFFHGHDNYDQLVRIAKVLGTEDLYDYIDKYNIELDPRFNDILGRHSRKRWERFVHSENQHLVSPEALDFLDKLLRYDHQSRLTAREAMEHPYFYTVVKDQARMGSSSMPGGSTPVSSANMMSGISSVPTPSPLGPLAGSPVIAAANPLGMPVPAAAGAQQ
Chain of Insulin-like growth factor 1 receptor (Homo sapiens) (P08069 31-736 limits assumed): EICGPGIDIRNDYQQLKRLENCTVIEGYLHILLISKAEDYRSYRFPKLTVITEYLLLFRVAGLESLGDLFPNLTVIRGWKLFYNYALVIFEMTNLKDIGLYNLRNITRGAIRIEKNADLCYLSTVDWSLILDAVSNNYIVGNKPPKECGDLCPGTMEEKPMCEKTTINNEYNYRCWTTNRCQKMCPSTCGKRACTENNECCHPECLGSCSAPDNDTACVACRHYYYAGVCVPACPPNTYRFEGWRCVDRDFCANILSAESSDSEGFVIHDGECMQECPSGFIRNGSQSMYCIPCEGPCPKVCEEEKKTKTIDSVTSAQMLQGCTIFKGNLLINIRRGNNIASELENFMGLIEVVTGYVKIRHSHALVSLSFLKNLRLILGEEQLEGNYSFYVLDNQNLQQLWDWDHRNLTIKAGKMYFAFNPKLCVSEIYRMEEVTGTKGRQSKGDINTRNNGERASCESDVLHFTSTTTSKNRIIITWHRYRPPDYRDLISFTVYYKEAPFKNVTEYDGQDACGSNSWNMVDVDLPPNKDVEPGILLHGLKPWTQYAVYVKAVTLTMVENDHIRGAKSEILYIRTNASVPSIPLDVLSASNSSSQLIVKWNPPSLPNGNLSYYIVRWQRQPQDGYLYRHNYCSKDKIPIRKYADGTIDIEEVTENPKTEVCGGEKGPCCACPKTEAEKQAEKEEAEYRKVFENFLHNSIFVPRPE
Chain of Insulin-like growth factor 1 receptor (Homo sapiens) (P08069 741-1367 limits assumed): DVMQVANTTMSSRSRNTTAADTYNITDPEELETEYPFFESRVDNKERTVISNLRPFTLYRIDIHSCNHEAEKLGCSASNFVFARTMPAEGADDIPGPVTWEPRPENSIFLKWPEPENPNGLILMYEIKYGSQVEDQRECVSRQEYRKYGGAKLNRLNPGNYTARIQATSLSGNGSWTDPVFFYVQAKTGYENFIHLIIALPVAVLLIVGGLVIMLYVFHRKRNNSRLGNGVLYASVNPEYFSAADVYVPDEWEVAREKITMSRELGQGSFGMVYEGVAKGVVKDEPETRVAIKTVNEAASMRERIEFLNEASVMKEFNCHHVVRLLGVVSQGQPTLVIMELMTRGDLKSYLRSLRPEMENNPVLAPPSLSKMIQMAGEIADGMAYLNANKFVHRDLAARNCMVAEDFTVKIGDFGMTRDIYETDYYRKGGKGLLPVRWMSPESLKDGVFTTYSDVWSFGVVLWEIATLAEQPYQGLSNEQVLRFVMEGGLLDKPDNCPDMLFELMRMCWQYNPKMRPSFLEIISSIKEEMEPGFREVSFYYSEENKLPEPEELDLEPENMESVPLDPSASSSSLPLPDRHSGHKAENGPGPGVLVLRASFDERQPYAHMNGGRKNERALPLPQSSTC

Cc1ccc2c(Nc3ccc(Cl)cc3)nccc2c1Nc1ncccc1-c1ncnc2[nH]cnc12.Cl.Cl.Cl
Activity [1]: 55% | Activity [2]: 100% | Activity [3]: 99% | Activity [4]: 100% | Activity [5]: 2.7% | Activity [6]: 94% | Activity [7]: 100% | Activity [8]: 6.6% | Activity [9]: 94% | Activity [10]: 100% | Activity [11]: 100%

Reference: ChEMBL document CHEMBL1155237, “Selective inhibitors of the mutant B-Raf pathway: discovery of a potent and orally bioavailable aminoisoquinoline” (J Med Chem, 2009)
